Drawing on US11524968B2, “Heterocyclic compound as a protein kinase inhibitor” (HK inno.N Corporation, priority 2017, dated 2022), this text covers IC50 for 31 molecules.

Where only a bound is given, the exact number is not on record here.

JAK1, sequence (P23458 whole entry): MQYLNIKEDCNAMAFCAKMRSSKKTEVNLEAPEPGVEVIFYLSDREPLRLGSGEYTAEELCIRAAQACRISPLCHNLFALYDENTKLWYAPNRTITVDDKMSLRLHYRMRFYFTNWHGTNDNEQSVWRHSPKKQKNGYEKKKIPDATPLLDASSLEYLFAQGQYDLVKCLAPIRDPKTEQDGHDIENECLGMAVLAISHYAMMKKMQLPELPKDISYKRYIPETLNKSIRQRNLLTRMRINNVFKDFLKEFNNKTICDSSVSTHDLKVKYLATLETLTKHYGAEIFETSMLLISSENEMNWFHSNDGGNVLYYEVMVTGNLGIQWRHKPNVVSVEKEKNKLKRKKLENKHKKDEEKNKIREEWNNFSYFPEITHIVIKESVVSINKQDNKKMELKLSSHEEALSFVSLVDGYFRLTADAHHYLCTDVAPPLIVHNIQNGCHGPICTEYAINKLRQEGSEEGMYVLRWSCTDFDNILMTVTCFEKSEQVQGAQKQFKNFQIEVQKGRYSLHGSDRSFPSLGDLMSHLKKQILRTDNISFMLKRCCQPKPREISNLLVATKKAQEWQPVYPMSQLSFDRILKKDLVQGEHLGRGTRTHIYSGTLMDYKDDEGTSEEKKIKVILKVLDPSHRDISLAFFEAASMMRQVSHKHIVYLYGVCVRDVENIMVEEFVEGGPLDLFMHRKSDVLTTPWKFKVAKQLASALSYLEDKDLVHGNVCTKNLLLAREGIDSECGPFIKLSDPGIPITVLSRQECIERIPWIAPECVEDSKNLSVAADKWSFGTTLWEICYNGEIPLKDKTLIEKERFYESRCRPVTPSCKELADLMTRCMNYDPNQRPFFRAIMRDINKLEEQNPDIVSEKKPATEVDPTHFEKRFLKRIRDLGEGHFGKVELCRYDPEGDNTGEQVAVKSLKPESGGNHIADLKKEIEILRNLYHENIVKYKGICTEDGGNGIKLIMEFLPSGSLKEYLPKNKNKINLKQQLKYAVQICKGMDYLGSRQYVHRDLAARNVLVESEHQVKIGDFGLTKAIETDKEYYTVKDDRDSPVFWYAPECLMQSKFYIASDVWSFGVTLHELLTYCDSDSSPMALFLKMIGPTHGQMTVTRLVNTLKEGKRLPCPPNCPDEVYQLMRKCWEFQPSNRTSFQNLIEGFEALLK

For this assay, the target named is JAK1 (Homo sapiens (Human), UniProt P23458). Kind of assay: Analysis of JAK1 activity inhibition ability (ADP-Glo Kinase Assay). In kind it is biochemical. To be noted: JAK1 enzyme, ADP-Glo luminescence, ATP 250 uM, IRS-itide substrate, 30° C. 40 minutes; read-out: IC50. An outline of the steps:
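JAK1 enzyme, IRS-itide substrate (40 ng/mL) and 250 uM ATP, both as prepared in kinase buffer (Tris-HCl pH 7.5, MgCl2, BSA, DTT), reacted with compound 40 min at 30 °C. ADP formed was detected by ADP-Glo luminescence; IC50 is the concentration giving 50% inhibition versus control.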
Regarding `O=C(Nc1cc(-c2ccc(NS(=O)(=O)c3cccc(F)c3)cc2C(F)(F)F)c2cc[nH]c2n1)C1CC1` [Example 122, N-(4-(4-((3-fluorophenyl)sulfonamido)-2-(trifluoromethyl)phenyl)-1H-pyrrolo[2,3-b]pyridin-6-yl)cyclopropanecarboxamide], the concentration for half-maximal inhibition (IC50) lay within 20 to 200 nM. As for `CC1CN(C(=O)c2cccnc2Cl)CC=C1c1cc(NC(=O)C2CC2)nc2[nH]ccc12` (stereo not shown) [Example 349, N-(4-(1-(2-chloronicotinoyl)-3-methyl-1,2,3,6-tetrahydropyridin-4-yl)-1H-pyrrolo[2,3-b]pyridin-6-yl)cyclopropanecarboxamide], the figure is 20 to 200 nM; as for `O=C(Nc1cc(-c2ccc(NS(=O)(=O)CC3CCOC3)cc2)c2cc[nH]c2n1)C1CC1` (stereo not shown) [Example 54, N-(4-(4-(((tetrahydrofuran-3-yl)methyl)sulfonamido)phenyl)-1H-pyrrolo[2,3-b]pyridin-6-yl)cyclopropanecarboxamide], under 20 nM. The result for `N#CCCC(=O)N1C[C@@H]2C[C@H]1CN2c1cc(NC(=O)C2CC2)nc2[nH]ccc12` [Example 680, N-(4-((1S,4S)-5-(3-cyanopropanoyl)-2,5-diazabicyclo[2.2.1]heptan-2-yl)-1H-pyrrolo[2,3-b]pyridin-6-yl)cyclopropanecarboxamide] reads over 200 nM. The result for `CC1CN(C(=O)CC(=O)N2CCOCC2)CC=C1c1cc(NC(=O)C2CC2)nc2[nH]ccc12` (stereo not shown) [Example 362, N-(4-(3-methyl-1-(3-morpholino-3-oxopropanoyl)-1,2,3,6-tetrahydropyridin-4-yl)-1H-pyrrolo[2,3-b]pyridin-6-yl)cyclopropanecarboxamide] reads 20 to 200 nM; that for `Cc1cc(NC(=O)NCC(F)(F)F)ccc1-c1cc(NC(=O)C2CC2)nc2[nH]ccc12` [Example 436, N-(4-(2-methyl-4-(3-(2,2,2-trifluoroethyl)ureido)phenyl)-1H-pyrrolo[2,3-b]pyridin-6-yl)cyclopropanecarboxamide], 20 to 200 nM; that for `O=C(Nc1cc(-c2ccc(NS(=O)(=O)N3CCOCC3)cc2)c2cc[nH]c2n1)C1CC1` [Example 214, N-(4-(4-(morpholine-4-sulfonamido)phenyl)-1H-pyrrolo[2,3-b]pyridin-6-yl)cyclopropanecarboxamide], under 20 nM. Regarding `N#CCCC(=O)N1CCC=C(c2cc(NC(=O)C3CC3)nc3[nH]ccc23)C1` [Example 421, N-(4-(1-(3-cyanopropanoyl)-1,2,5,6-tetrahydropyridin-3-yl)-1H-pyrrolo[2,3-b]pyridin-6-yl)cyclopropanecarboxamide], the IC50 fell in the range of 20 to 200 nM.

With `Cc1cc(NS(=O)(=O)CCCC#N)ccc1-c1cc(NC(=O)C2CC2)nc2[nH]ccc12` [Example 96, N-(4-(4-((3-cyanopropyl)sulfonamido)-2-methylphenyl)-1H-pyrrolo[2,3-b]pyridin-6-yl)cyclopropanecarboxamide], the IC50 was 20 to 200 nM. `CC(C)(C)OC(=O)N1CCC(c2cc(NC(=O)C3CC3)nc3[nH]ccc23)C(F)C1` (stereo not shown) [Example 656, tert-butyl 4-(6-(cyclopropanecarboxamido)-1H-pyrrolo[2,3-b]pyridin-4-yl)-3-fluoropiperidine-1-carboxylate]: the IC50 is over 200 nM.

As for `CCS(=O)(=O)Nc1ccc(-c2cc(NC(=O)C3CC3)nc3[nH]cc(C)c23)cc1` [Example 93, N-(4-(4-(ethylsulfonamido)phenyl)-3-methyl-1H-pyrrolo[2,3-b]pyridin-6-yl)cyclopropanecarboxamide], the IC50 was in the range of 20 to 200 nM. As for `CC1CN(C(=O)c2ccnc(Br)c2)CC=C1c1cc(NC(=O)C2CC2)nc2[nH]ccc12` (stereo not shown) [Example 382, N-(4-(1-(2-bromoisonicotinoyl)-3-methyl-1,2,3,6-tetrahydropyridin-4-yl)-1H-pyrrolo[2,3-b]pyridin-6-yl)cyclopropanecarboxamide], the figure is 20 to 200 nM. As for `CCCCNC(=S)N1CCC(c2cc(NC(=O)C3CC3)nc3[nH]ccc23)CC1` [Example 659, N-(4-(1-(butylcarbamothioyl)piperidin-4-yl)-1H-pyrrolo[2,3-b]pyridin-6-yl)cyclopropanecarboxamide], the figure is over 200 nM; as for `O=C(Nc1cc(-c2ccc(NS(=O)(=O)N3CCCC3)cc2)c2cc[nH]c2n1)C1CC1` [Example 218, N-(4-(4-(pyrrolidine-1-sulfonamido)phenyl)-1H-pyrrolo[2,3-b]pyridin-6-yl)cyclopropanecarboxamide], under 20 nM. On to `O=C(Nc1nc(-c2ccc(NS(=O)(=O)c3ccc(Br)cc3)cc2)c2cc[nH]c2n1)C1CC1` [Example 189, N-(4-(4-((4-bromophenyl)sulfonamido)phenyl)-7H-pyrrolo[2,3-d]pyrimidin-2-yl)cyclopropanecarboxamide], for which the IC50 was in the range of 20 to 200 nM. The result for `CCS(=O)(=O)Nc1ccc(-c2cc(NC(=O)C3CC3)nc3[nH]ccc23)cc1C` [Example 64, N-(4-(4-(ethylsulfonamido)-3-methylphenyl)-1H-pyrrolo[2,3-b]pyridin-6-yl)cyclopropanecarboxamide] reads under 20 nM. The result for `CCS(=O)(=O)N1C2CCC1CC(c1cc(NC(=O)C3CC3)nc3[nH]ccc13)C2` (stereo not shown) [Example 646, N-(4-(8-(ethylsulfonyl)-8-azabicyclo[3.2.1]octan-3-yl)-1H-pyrrolo[2,3-b]pyridin-6-yl)cyclopropanecarboxamide] reads over 200 nM. On to `N#CC1(CS(=O)(=O)Nc2ccc(-c3cc(NC(=O)C4CC4)nc4[nH]ccc34)cc2F)CC1` [Example 85, N-(4-(4-(((1-cyanocyclopropyl)methyl)sulfonamido)-3-fluorophenyl)-1H-pyrrolo[2,3-b]pyridin-6-yl)cyclopropanecarboxamide], for which the IC50 is under 20 nM. The result for `C[C@@H]1CN(C(=O)c2ccc([N+](=O)[O-])cc2)CC=C1c1cc(NC(=O)C2CC2)nc2[nH]ccc12` [Example 398, (S)—N-(4-(3-methyl-1-(4-nitrobenzoyl)-1,2,3,6-tetrahydropyridin-4-yl)-1H-pyrrolo[2,3-b]pyridin-6-yl)cyclopropanecarboxamide] reads under 20 nM. On to `Cc1nnn(Cc2ccc(-c3cc(NC(=O)C4CC4)nc4[nH]cnc34)cc2)n1` [Example 593, N-(7-(4-((5-methyl-2H-tetrazol-2-yl)methyl)phenyl)-3H-imidazo[4,5-b]pyridin-5-yl)cyclopropanecarboxamide], for which the IC50 was over 200 nM.

Turning to `CCS(=O)(=O)Nc1ccc(-c2cc(NC(=O)C3CC3)nc3[nH]ccc23)cc1F` [Example 1, N-(4-(4-(ethylsulfonamido)-3-fluorophenyl)-1H-pyrrolo[2,3-b]pyridin-6-yl)cyclopropanecarboxamide], the IC50 was under 20 nM.

For the molecule `CCS(=O)(=O)N1CC(CC#N)(N2CC=C(c3cc(NC(=O)C4CC4)nc4[nH]ccc34)CC2)C1` [Example 616, N-(4-(1-(3-(cyanomethyl)-1-(ethylsulfonyl)azetidin-3-yl)-1,2,3,6-tetrahydropyridin-4-yl)-1H-pyrrolo[2,3-b]pyridin-6-yl)cyclopropanecarboxamide], the IC50 was under 20 nM.

Regarding `C[C@@H]1CN(C(=O)c2cccn(C)c2=O)CC=C1c1cc(NC(=O)C2CC2)nc2[nH]ccc12` [Example 405, (S)—N-(4-(3-methyl-1-(1-methyl-2-oxo-1,2-dihydropyridine-3-carbonyl)-1,2,3,6-tetrahydropyridin-4-yl)-1H-pyrrolo[2,3-b]pyridin-6-yl)cyclopropanecarboxamide], the IC50 was over 200 nM. As to `N#CC1(CS(=O)(=O)NC2CC=C(c3cc(NC(=O)C4CC4)nc4[nH]ccc34)CC2)CC1` (stereo not shown) [Example 157, N-(4-(4-(((1-cyanocyclopropyl)methyl)sulfonamido)cyclohex-1-en-1-yl)-1H-pyrrolo[2,3-b]pyridin-6-yl)cyclopropanecarboxamide], the IC50 was under 20 nM. The result for `O=C(Nc1cc(-c2ccc(NC3CN(C(=O)NCC(F)(F)F)C3)cc2)c2cc[nH]c2n1)C1CC1` [Example 514, 3-((4-(6-(cyclopropanecarboxamido)-1H-pyrrolo[2,3-b]pyridin-4-yl)phenyl)amino)-N-(2,2,2-trifluoroethyl)azetidine-1-carboxamide] reads over 200 nM; that for `O=C(Nc1cc(C2=CCN(C(=O)NCC(F)(F)F)CC2)c2cc[nH]c2n1)C1CC1` [Example 443, 4-(6-(cyclopropanecarboxamido)-1H-pyrrolo[2,3-b]pyridin-4-yl)-N-(2,2,2-trifluoroethyl)-3,6-dihydropyridine-1 (2H)-carboxamide], under 20 nM. The result for `CC(=O)N1CCC(S(=O)(=O)Nc2ccc(-c3cc(NC(=O)C4CC4)nc4[nH]ccc34)cc2)CC1` [Example 18, N-(4-(4-((1-acetylpiperidine)-4-sulfonamido)phenyl)-1H-pyrrolo[2,3-b]pyridin-6-yl)cyclopropanecarboxamide] reads 20 to 200 nM; that for `O=C(Nc1cc(C2=CCN(C(=O)CC(F)(F)F)CC2)c2cc[nH]c2n1)C1CC1` [Example 253, N-(4-(1-(3,3,3-trifluoropropanoyl)-1,2,3,6-tetrahydropyridin-4-yl)-1H-pyrrolo[2,3-b]pyridin-6-yl)cyclopropanecarboxamide], 20 to 200 nM. The result for `N#CCC1(N2CC=C(c3cc(NC(=O)C4CC4)nc4[nH]ccc34)CC2)CNC1` [Example 615, N-(4-(1-(3-(cyanomethyl)azetidin-3-yl)-1,2,3,6-tetrahydropyridin-4-yl)-1H-pyrrolo[2,3-b]pyridin-6-yl)cyclopropanecarboxamide] reads 20 to 200 nM; that for `O=C(Nc1cc(-c2ccc(NC3CCN(C(=O)c4ccncc4)CC3)cc2)c2cc[nH]c2n1)C1CC1` [Example 507, N-(4-(4-((1-isonicotinoylpiperidin-4-yl)amino)phenyl)-1H-pyrrolo[2,3-b]pyridin-6-yl)cyclopropanecarboxamide], over 200 nM. On to `N#CC1(CC(=O)N2C3CCC2CN(c2nc(NC(=O)C4CC4)nc4[nH]ccc24)C3)CC1` [Example 689, N-(4-(8-(2-(1-cyanocyclopropyl)acetyl)-3,8-diazabicyclo[3.2.1]octan-3-yl)-7H-pyrrolo[2,3-d]pyrimidin-2-yl)cyclopropanecarboxamide], for which the IC50 fell in the range of 20 to 200 nM.
